In ChEMBL document CHEMBL1140748, “Synthesis and biological evaluation of novel 2,4-diaminoquinazoline derivatives as SMN2 promoter activators for the potential treatment of spinal muscular atrophy” (J Med Chem, 2008):

Legend:
[1] = Toxicity against rat hepatoma cells assessed as effect on alpha-glutathione S-transferase; format: cell-based; settings: read-out: TC50 (the source's name)
[2] = Activation of SMN2 promoter in mouse NSC34 cells assessed as induction of beta-lactamase activity; format: functional, cell-based; settings: Mus musculus, NSC-34
Fibroblast [3] = assay: Increase in number of Cajal bodies containing SMN2 protein in human fibroblasts from spinal muscular atrophy patient at 100 nM after 5 days relative to control; format: functional
Fibroblast [4] = assay: Increase in SMN2 mRNA expression in human fibroblasts from spinal muscular atrophy patient; format: functional, cell-based
[5] = Toxicity against rat hepatoma cells assessed as effect on mitochondrial function by MTT assay; format: cell-based; settings: read-out: TC50 (the source's name)
[6] = Toxicity against rat hepatoma cells assessed depletion of ATP levels; format: cell-based; settings: read-out: TC50 (the source's name)
[7] = Toxicity against rat hepatoma cells; format: cell-based; settings: read-out: TC50 (the source's name)
Fibroblast [8] = assay: Increase in number of cells with Cajal bodies containing SMN2 protein in human fibroblasts from spinal muscular atrophy patient at 100 nM after 5 days relative to control; format: functional, cell-based
[9] = Activation of SMN2 promoter in mouse NSC34 cells assessed as induction of beta-lactamase activity relative to nonactivated cells; format: functional
Dihydrofolate reductase = target: T1, Dihydrofolate reductase (Homo sapiens, UniProt P00374); assay: Inhibition of human recombinant DHFR
T1 sequence (P00374 whole entry): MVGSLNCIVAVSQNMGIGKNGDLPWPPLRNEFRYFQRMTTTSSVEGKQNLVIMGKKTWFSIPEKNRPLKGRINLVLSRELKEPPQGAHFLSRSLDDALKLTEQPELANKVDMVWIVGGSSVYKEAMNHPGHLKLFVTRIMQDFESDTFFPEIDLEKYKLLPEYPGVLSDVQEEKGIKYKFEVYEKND

SMILES	EC50 [2] [nM]	Activity [9]	IC50 (Dihydrofolate reductase) [nM]	further results
Nc1nc(N)c2c(OCc3cccc(Cl)c3)cccc2n1	78	1.74	98	CC50 [1]: 29000 nM; Fold change (Fibroblast [3]): 2.9; Activity (Fibroblast [4]): Dose-dependent effect; CC50 [5]: 8000 nM; CC50 [6]: 300 nM; CC50 [7]: 5000 nM; Activity (Fibroblast [8]): Dose-dependent effect
C[C@H](Oc1cccc2nc(N)nc(N)c12)c1cccc(Cl)c1	2	–	25	–
Nc1nc(N)c2c(COc3ccccc3F)cccc2n1	19	2.1	39	–
Nc1nc(N)c2c(COc3cccc(Cl)c3)cccc2n1	42	2	8400	–
Nc1nc(N)c2c(OCC3CCN(S(=O)(=O)c4ccc5ccccc5c4)CC3)cccc2n1	464	2	–	–
Nc1nc(N)c2c(OCC3CCN(C(=O)c4cccc(F)c4F)CC3)cccc2n1	67	2.5	–	–
Nc1nc(N)c2c(OCc3cccc(F)c3)cccc2n1	55	1.59	–	–
Nc1nc(N)c2c(OCC3CCN(C(=O)c4ccc(F)cc4F)CC3)cccc2n1	89	2.4	–	–
Nc1nc(N)c2c(Oc3ccc(F)cc3)cccc2n1	1320	1.7	–	–
Nc1nc(N)c2c(OCC3CCN(S(=O)(=O)c4ccccc4Cl)CC3)cccc2n1	897	2.1	–	–
